Source: patent US20200361895A1, “NOVEL SULFONAMIDE CARBOXAMIDE COMPOUNDS” (Inflazome Limited, priority 2017, published 2020)
Structures can show the parent of a compound that is named as a salt. Where two headings read alike, the source gives them in different places.

What was measured:
[1] = target: T1, NLRP3 (Homo sapiens, UniProt Q96P20); assay: THP-1 cells pyroptosis assay (LPS + nigericin, resazurin readout; THP IC50); type: cell-based; parameters: Seed THP-1 cells (25,000 cells/well) containing 1.0 μg/ml LPS in 40 μl of RPMI medium; host or cells: THP-1 cells
T1 sequence (Q96P20 whole entry): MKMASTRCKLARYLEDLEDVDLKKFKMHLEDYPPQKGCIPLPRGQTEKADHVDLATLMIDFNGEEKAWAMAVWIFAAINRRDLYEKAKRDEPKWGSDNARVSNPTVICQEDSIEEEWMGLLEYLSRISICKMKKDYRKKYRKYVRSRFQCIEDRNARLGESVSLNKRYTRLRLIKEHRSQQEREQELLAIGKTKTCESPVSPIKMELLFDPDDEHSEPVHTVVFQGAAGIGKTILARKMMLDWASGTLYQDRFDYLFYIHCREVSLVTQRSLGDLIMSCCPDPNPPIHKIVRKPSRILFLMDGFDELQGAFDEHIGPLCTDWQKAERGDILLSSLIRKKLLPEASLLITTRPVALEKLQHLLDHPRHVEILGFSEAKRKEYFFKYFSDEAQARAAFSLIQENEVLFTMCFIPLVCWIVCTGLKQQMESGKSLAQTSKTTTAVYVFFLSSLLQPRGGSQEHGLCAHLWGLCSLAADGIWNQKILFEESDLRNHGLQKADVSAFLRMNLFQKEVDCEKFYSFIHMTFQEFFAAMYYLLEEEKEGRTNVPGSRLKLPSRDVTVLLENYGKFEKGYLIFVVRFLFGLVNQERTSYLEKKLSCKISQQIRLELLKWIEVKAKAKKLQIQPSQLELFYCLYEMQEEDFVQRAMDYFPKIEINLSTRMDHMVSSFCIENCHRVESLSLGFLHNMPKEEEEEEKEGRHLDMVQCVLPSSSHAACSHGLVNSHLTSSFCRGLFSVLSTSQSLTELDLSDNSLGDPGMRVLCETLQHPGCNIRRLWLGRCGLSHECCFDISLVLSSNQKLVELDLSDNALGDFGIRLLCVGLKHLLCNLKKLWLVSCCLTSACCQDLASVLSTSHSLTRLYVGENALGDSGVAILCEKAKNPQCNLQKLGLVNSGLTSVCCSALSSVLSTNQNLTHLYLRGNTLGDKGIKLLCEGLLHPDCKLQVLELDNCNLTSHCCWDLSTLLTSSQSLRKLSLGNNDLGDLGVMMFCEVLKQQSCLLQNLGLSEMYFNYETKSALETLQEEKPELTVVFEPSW
Summary of the method: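 Human THP-1 cells, 25,000/well in serum-free RPMI with 1 μg/ml LPS, treated 3 hrs at 37° C with compound (8-point half-log, 10 μM top, 0.1% DMSO), then 5 μM nigericin 1 hr. Viability by 100 μM resazurin fluorescence after 1-2 hrs; IC50 by 4-parameter fit.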

[2] = target: T1, NLRP3; assay: Human whole blood IL1β release assay (LPS + nigericin, AlphaLisa IL-1β; HWB IC50); type: cell-based; parameters: Human whole blood in Li-heparin tubes was obtained from healthy donors from a volunteer donor panel; from tissue; host or cells: human whole blood from healthy donors; conditions: IL-1β release
Summary of the method: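 Donor Li-heparin whole blood primed with 1 μg/ml LPS, given compound (8-point half-log series, 10 μM top; DMSO 0.1% final) for 3 h at 37 °C, then nigericin 10 μM final for 1 h. Supernatant IL-1β measured by AlphaLisa; IC50 from 4-parameter variable-slope fit.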

[3] = PK protocol, intravenous administration; type: in vivo, male Sprague Dawley rats; conditions: male, Sprague Dawley, plasma, rat; for Vd: read-out: Vdss
Experimental: (§1) Pharmacokinetic parameters were determined in male Sprague Dawley rats (Charles River, UK, 250-350 g; or Vital River Laboratory Animal Technology Co Ltd, Beijing, China, 7-9 weeks old). Animals were individually housed during the study and maintained under a 12 h light/dark cycle. Animals had free access to food and water.
(§2) For intravenous administration, compounds were formulated as a solution in water or DMSO:PBS [10:90] in 2 mL/kg dosing volume and administered via tail vein. For oral administration, compounds were formulated as a solution in DMSO:water [10:90] in 5 mL/kg dosing volume and administered orally.
(§3) Serial blood samples (about 120-300 μL) were taken from each animal at each of 8 time-points post dose (0.083, 0.25, 0.5, 1, 2, 4, 8 and 24 h) or at each of 12 time-points post dose (0.03, 0.1, 0.17, 0.25, 0.5, 1, 2, 4, 6, 8, 12 and 24 h) or pre-dose and at each of 9 time-points post dose (0.25, 0.5, 1, 2, 4, 6, 8, 12 and 24 h). Samples were held on ice for no longer than 30 minutes before centrifugation (10,000 rpm (8,385 g) for 3 minutes; or 5,696 rpm (3,000 g) for 15 minutes) for plasma generation. Plasma was frozen on dry ice prior to bioanalysis. PK parameters were generated from LC-MS/MS data using Dotmatics or Phoenix WinNonlin 6.3 software.

[4] = PK protocol, oral administration; type: in vivo; conditions: rat, male Sprague Dawley rats, 3 mg/kg, solution in DMSO:water [10:90], plasma
Experimental: as §1, §2, §3

Work on `COc1cc(-c2ccc3c(c2NC(=O)NS(=O)(=O)c2ccn(CCN(C)C)n2)CCC3)ccn1` [Example 61, 1-(2-(Dimethylamino)ethyl)-N-((5-(2-methoxypyridin-4-yl)-2,3-dihydro-1H-inden-4-yl)carbamoyl)-1H-pyrazole-3-sulfonamide] yielded an IC50 [1] of no more than 500 nM, an IC50 [2] of no more than 500 nM and an AUC ([3]; dose 1.69 mg/kg) of 1140 ng·h/mL. It also gave a clearance ([3]; dose 1.69 mg/kg) of 24.6 mL/min/kg, a half-life ([3]; dose 1.69 mg/kg) of 1.2 h and a Vd ([3]; dose 1.69 mg/kg) of 0.6 L/kg.

With `CCn1nc(S(=O)(=O)NC(=O)Nc2c(-c3ccnc(OC)c3)ccc3c2CCC3)cc1CN(C)C` [Example 64, 5-((Dimethylamino)methyl)-1-ethyl-N-((5-(2-methoxypyridin-4-yl)-2,3-dihydro-1H-inden-4-yl)carbamoyl)-1H-pyrazole-3-sulfonamide] the IC50 [1] was no more than 500 nM, the IC50 [2] was no more than 500 nM and the AUC ([3]; dose 1.7 mg/kg) was 2710 ng·h/mL. For the same molecule, the clearance ([3]; dose 1.7 mg/kg) was 10.5 mL/min/kg, the half-life ([3]; dose 1.7 mg/kg) was 3.8 h and the Vd ([3]; dose 1.7 mg/kg) was 1.23 L/kg.

`COc1cc(-c2ccc3c(c2NC(=O)NS(=O)(=O)c2ccn(C(C)(C)CN(C)C)n2)CCC3)ccn1` [Example 69, 1-(1-(Dimethylamino)-2-methylpropan-2-yl)-N-((5-(2-methoxypyridin-4-yl)-2,3-dihydro-1H-inden-4-yl)carbamoyl)-1H-pyrazole-3-sulfonamide] showed an AUC [4] of 504 ng·h/mL, a CL/F [4] of 112 mL/min/kg and a Cmax [4] of 113 ng/mL. It also gave a Tmax [4] of 0.5 h, a half-life [4] of 5 h and a bioavailability [4] of 19%. It also gave an IC50 [1] of no more than 500 nM, an IC50 [2] of no more than 500 nM and an AUC ([3]; dose 1 mg/kg) of 896 ng·h/mL. For the same molecule, the clearance ([3]; dose 1 mg/kg) was 19 mL/min/kg, the half-life ([3]; dose 1 mg/kg) was 5.8 h and the Vd ([3]; dose 1 mg/kg) was 0.78 L/kg.

`COc1cc(-c2ccc3c(c2NC(=O)NS(=O)(=O)N(C)C2CCN(C)C2)CCC3)ccn1` (stereo not drawn) [Example 122, 3-(N-Methyl-N-(1-methylpyrrolidin-3-yl)sulfamoyl)-1-(5-(2-methoxypyridin-4-yl)-2,3-dihydro-1H-inden-4-yl)urea] showed an IC50 [1] of no more than 500 nM, an IC50 [2] of no more than 500 nM and an AUC ([3]; dose 1 mg/kg) of 1320 ng·h/mL. It also gave a clearance ([3]; dose 1 mg/kg) of 12.6 mL/min/kg, a half-life ([3]; dose 1 mg/kg) of 11.1 h and a Vd ([3]; dose 1 mg/kg) of 8.69 L/kg.

For `CC(C)n1ccc(S(=O)(=O)NC(=O)Nc2c(-c3ccncc3)cc(F)c3c2CCC3)n1` [Example 205, N-((7-Fluoro-5-(pyridin-4-yl)-2,3-dihydro-1H-inden-4-yl)carbamoyl)-1-isopropyl-1H-pyrazole-3-sulfonamide], the IC50 [1] was no more than 500 nM, the IC50 [2] was no more than 500 nM and the AUC ([3]; dose 1 mg/kg) was 4870 ng·h/mL. The clearance ([3]; dose 1 mg/kg) was 3.4 mL/min/kg, the half-life ([3]; dose 1 mg/kg) was 2.6 h and the Vd ([3]; dose 1 mg/kg) was 0.57 L/kg.

Molecule `COc1cc(-c2ccc3c(c2NC(=O)NS(=O)(=O)c2ccn(C4CC4)n2)CCC3)ccn1` [Example 221, 1-Cyclopropyl-N-((5-(2-methoxypyridin-4-yl)-2,3-dihydro-1H-inden-4-yl)carbamoyl)-1H-pyrazole-3-sulfonamide, sodium salt] has an AUC [4] of 136000 ng·h/mL, a CL/F [4] of 0.48 mL/min/kg and a Cmax [4] of 7220 ng/mL. It also gave a Tmax [4] of 0.75 h, a half-life [4] of 12 h and a bioavailability [4] of 83%. For the same molecule, the IC50 [1] was no more than 500 nM, the IC50 [2] was no more than 500 nM and the AUC ([3]; dose 1 mg/kg) was 65400 ng·h/mL. The clearance ([3]; dose 1 mg/kg) was 0.39 mL/min/kg, the half-life ([3]; dose 1 mg/kg) was 15 h and the Vd ([3]; dose 1 mg/kg) was 0.36 L/kg.

In the case of `CC(C)n1ccc(S(=O)(=O)NC(=O)Nc2c(-c3ccnnc3)ccc3c2CCC3)n1` [Example 223, 1-Isopropyl-N-((5-(Pyridazin-4-yl)-2,3-dihydro-1H-inden-4-yl)carbamoyl)-1H-pyrazole-3-sulfonamide, sodium salt], the IC50 [1] is reported as no more than 500 nM, the IC50 [2] is reported as no more than 500 nM and the AUC ([3]; dose 1 mg/kg) is reported as 1740 ng·h/mL. The clearance ([3]; dose 1 mg/kg) was 9.6 mL/min/kg, the half-life ([3]; dose 1 mg/kg) was 0.9 h and the Vd ([3]; dose 1 mg/kg) was 0.31 L/kg.

Molecule `COc1cc(-c2ccc3c(c2NC(=O)NS(=O)(=O)c2ccn(C(C)C)n2)CCO3)ccn1` [Example 224, 1-Isopropyl-N-((5-(2-methoxypyridin-4-yl)-2,3-dihydrobenzofuran-4-yl)carbamoyl)-1H-pyrazole-3-sulfonamide, sodium salt] has an IC50 [1] of no more than 500 nM, an IC50 [2] of no more than 500 nM and an AUC ([3]; dose 1 mg/kg) of 6480 ng·h/mL. It also gave a clearance ([3]; dose 1 mg/kg) of 2.6 mL/min/kg, a half-life ([3]; dose 1 mg/kg) of 3.2 h and a Vd ([3]; dose 1 mg/kg) of 0.47 L/kg.

Work on `CC(C)n1cc(S(=O)(=O)NC(=O)Nc2c(-c3ccnc(C#N)c3)ccc3c2CCC3)nn1` [Example 230, N-((5-(2-Cyanopyridin-4-yl)-2,3-dihydro-1H-inden-4-yl)carbamoyl)-1-isopropyl-1H-1,2,3-triazole-4-sulfonamide, sodium salt] yielded an IC50 [1] of no more than 500 nM, an IC50 [2] of no more than 500 nM and an AUC ([3]; dose 1 mg/kg) of 1950 ng·h/mL. It also gave a clearance ([3]; dose 1 mg/kg) of 8.5 mL/min/kg, a half-life ([3]; dose 1 mg/kg) of 1.3 h and a Vd ([3]; dose 1 mg/kg) of 0.24 L/kg.

`COc1cc(-c2ccc3c(c2NC(=O)NS(=O)(=O)c2ccc(CN(C)C)cc2)CCC3)ccn1` [Example 251, 4-((Dimethylamino)methyl)-N-((5-(2-methoxypyridin-4-yl)-2,3-dihydro-1H-inden-4-yl)carbamoyl)benzenesulfonamide, sodium salt] showed an IC50 [1] of no more than 500 nM, an IC50 [2] of no more than 500 nM and an AUC ([3]; dose 1 mg/kg) of 1260 ng·h/mL. The clearance ([3]; dose 1 mg/kg) was 13.3 mL/min/kg, the half-life ([3]; dose 1 mg/kg) was 2.9 h and the Vd ([3]; dose 1 mg/kg) was 2.12 L/kg.
